Test results reported in the CheMixHub viscosity set.
“And” between values parts separate entries of the source, which are not always exact repeats. Equal values may be shown once.

Assays:
[1] = xn = mol fraction of the nth substance listed

ClC(Cl)C(Cl)Cl
viscosity
Conditions | 298.15 K | 303 K | 303.15 K | 313.15 K | 323.15 K
101 kPa | 1.632 mPa·s | – | 1.455 mPa·s and 1.521 mPa·s | – | –
101.3 kPa | – | – | 1.484 mPa·s | – | –
101.32 kPa | – | – | 1.45 mPa·s and 1.455 mPa·s | 1.367 mPa·s | 1.18 mPa·s
101.33 kPa | 1.581 mPa·s | 1.381 mPa·s | 1.455 mPa·s | – | 1.075 mPa·s

COC(=O)OC + CC(C)O
[1], 101.3 kPa
Conditions | viscosity [mPa·s]
293.15 K, x1 = 0.0526 | 1.968
293.15 K, x1 = 0.0934 | 1.706
293.15 K, x1 = 0.2033 | 1.212
293.15 K, x1 = 0.3129 | 0.943
293.15 K, x1 = 0.4065 | 0.817
293.15 K, x1 = 0.5 | 0.74
293.15 K, x1 = 0.6079 | 0.686
293.15 K, x1 = 0.7026 | 0.647
293.15 K, x1 = 0.8048 | 0.609
293.15 K, x1 = 0.9008 | 0.593
293.15 K, x1 = 0.9507 | 0.601
298.15 K, x1 = 0.0498 | 1.733
298.15 K, x1 = 0.0979 | 1.454
298.15 K, x1 = 0.2031 | 1.046
298.15 K, x1 = 0.2999 | 0.844
298.15 K, x1 = 0.3972 | 0.74
298.15 K, x1 = 0.4892 | 0.69
298.15 K, x1 = 0.5938 | 0.654
298.15 K, x1 = 0.6971 | 0.625
298.15 K, x1 = 0.7983 | 0.589
298.15 K, x1 = 0.9012 | 0.567
298.15 K, x1 = 0.9451 | 0.567
303.15 K, x1 = 0.0437 | 1.537
303.15 K, x1 = 0.1028 | 1.287
303.15 K, x1 = 0.2013 | 0.992
303.15 K, x1 = 0.3062 | 0.802
303.15 K, x1 = 0.384 | 0.713
303.15 K, x1 = 0.4951 | 0.642
303.15 K, x1 = 0.5998 | 0.606
303.15 K, x1 = 0.7053 | 0.581
303.15 K, x1 = 0.8047 | 0.562
303.15 K, x1 = 0.9062 | 0.545
303.15 K, x1 = 0.937 | 0.542
313.15 K, x1 = 0.0507 | 1.147
313.15 K, x1 = 0.0997 | 1.005
313.15 K, x1 = 0.1984 | 0.799
313.15 K, x1 = 0.2975 | 0.668
313.15 K, x1 = 0.4001 | 0.592
313.15 K, x1 = 0.4884 | 0.553
313.15 K, x1 = 0.5959 | 0.522
313.15 K, x1 = 0.7017 | 0.506
313.15 K, x1 = 0.8014 | 0.494
313.15 K, x1 = 0.9053 | 0.49
313.15 K, x1 = 0.9492 | 0.491

CO + CCO
[1]
Conditions | viscosity [mPa·s]
293.15 K, 101 kPa, x1 = 0.25 | 1.134
293.15 K, 101 kPa, x1 = 0.5 | 0.809
293.15 K, 101 kPa, x1 = 0.75 | 0.69
293.15 K, 101.3 kPa, x1 = 0.114 | 1.1
293.15 K, 101.3 kPa, x1 = 0.263 | 0.997
293.15 K, 101.3 kPa, x1 = 0.501 | 0.849
293.15 K, 101.3 kPa, x1 = 0.738 | 0.712
293.15 K, 101.3 kPa, x1 = 0.856 | 0.651
298.15 K, 101 kPa, x1 = 0.2045 | 0.94
298.15 K, 101 kPa, x1 = 0.25 | 1.032
298.15 K, 101 kPa, x1 = 0.3971 | 0.832
298.15 K, 101 kPa, x1 = 0.5 | 0.747
298.15 K, 101 kPa, x1 = 0.5962 | 0.729
298.15 K, 101 kPa, x1 = 0.75 | 0.639
298.15 K, 101 kPa, x1 = 0.7975 | 0.634
298.15 K, 101.33 kPa, x1 = 0.0889 | 1.045
298.15 K, 101.33 kPa, x1 = 0.146 | 1.008
298.15 K, 101.33 kPa, x1 = 0.2385 | 0.95
298.15 K, 101.33 kPa, x1 = 0.3311 | 0.896
298.15 K, 101.33 kPa, x1 = 0.4041 | 0.855
298.15 K, 101.33 kPa, x1 = 0.5234 | 0.791
298.15 K, 101.33 kPa, x1 = 0.6076 | 0.747
298.15 K, 101.33 kPa, x1 = 0.7136 | 0.694
298.15 K, 101.33 kPa, x1 = 0.8128 | 0.643
298.15 K, 101.33 kPa, x1 = 0.9156 | 0.594
303.15 K, 101 kPa, x1 = 0.25 | 0.939
303.15 K, 101 kPa, x1 = 0.5 | 0.69
303.15 K, 101 kPa, x1 = 0.75 | 0.594
308.15 K, 101 kPa, x1 = 0.2045 | 0.791
308.15 K, 101 kPa, x1 = 0.25 | 0.858
308.15 K, 101 kPa, x1 = 0.3971 | 0.706
308.15 K, 101 kPa, x1 = 0.5 | 0.638
308.15 K, 101 kPa, x1 = 0.5962 | 0.625
308.15 K, 101 kPa, x1 = 0.75 | 0.552
308.15 K, 101 kPa, x1 = 0.7975 | 0.548
313.15 K, 101 kPa, x1 = 0.25 | 0.784
313.15 K, 101 kPa, x1 = 0.5 | 0.593
313.15 K, 101 kPa, x1 = 0.75 | 0.515
313.15 K, 101.3 kPa, x1 = 0.114 | 0.77
313.15 K, 101.3 kPa, x1 = 0.263 | 0.709
313.15 K, 101.3 kPa, x1 = 0.501 | 0.615
313.15 K, 101.3 kPa, x1 = 0.738 | 0.531
313.15 K, 101.3 kPa, x1 = 0.856 | 0.491
318.15 K, 101 kPa, x1 = 0.2045 | 0.667
318.15 K, 101 kPa, x1 = 0.25 | 0.718
318.15 K, 101 kPa, x1 = 0.3971 | 0.599
318.15 K, 101 kPa, x1 = 0.5 | 0.551
318.15 K, 101 kPa, x1 = 0.5962 | 0.531
318.15 K, 101 kPa, x1 = 0.75 | 0.482
318.15 K, 101 kPa, x1 = 0.7975 | 0.474
323.15 K, 101 kPa, x1 = 0.25 | 0.661
323.15 K, 101 kPa, x1 = 0.5 | 0.513
323.15 K, 101 kPa, x1 = 0.75 | 0.452
